Measured values taken from US20240376094A2, “SELECTIVE BCL-XL PROTAC COMPOUNDS AND METHODS OF USE” (Les Laboratoires Servier, priority 2021, published 2024).
pIC50: −log10 of the molar value.

Columns and labels:
Format in all cases: cell-based
COR-L105 = experiment: CellTiter-Glo proliferation assay, COR-L105; conditions: Homo sapiens, COR-L105, 120 h, COR-L105, 5 days
How it was run: (§1)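 Both lines grown in RPMI-1640 + 10% FBS. COR-L105 plated flat at 1,000 cells/well overnight; NCI-H1650 grown as spheroids, 3,000 cells/well, 72 h. Compounds at 0.508 nM-10 μM final for 5 days, 37° C. ATP read by CellTiter-Glo (3D version for spheroids); IC50 from variable-slope fit normalized to untreated cells.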

endogenous BCL-xL = molecular target: T1, endogenous BCL-xL (Homo sapiens, UniProt Q07817); experiment: Degradation of endogenous BCL-xL in COR-L105 (ProteinSimple Jess); conditions: COR-L105, 24 h, COR-L105, dose 300 nM, read-out: % BCL-xL vs. Untreated, COR-L105
T1 construct: endogenous in cells; host or cells: COR-L105 (ECACC No. 92031918); NCI-H1650 (ATCC No. CRL-5883)
Method: The BCL-xL degrader low molecular weight compounds were tested against two endogenous cancer cell lines: • COR-L105: ECACC No. 92031918 cultured in RPMI-1640+10% FBS • NCI-H1650: (ATCC No. CRL-5883 cultured in RPMI-1640+10% FBS
The ability of the BCL-xL degrader low molecular weight compounds to degrade endogenous BCL-xL was assessed using the ProteinSimple 2-40 kDa Jess Separation Module.
Cell lines were cultured in media that is optimal for their growth at 5% CO2, 37° C. in a tissue culture incubator. Prior to seeding for the degradation assay, the cells were split at least 2 days before the assay to ensure optimal growth density. On the day of seeding, adherent cells were lifted off tissue culture flasks using 0.25% trypsin. Cell viability and cell density were determined using a cell counter (Vi-Cell XR Cell Viability Analyzer, Beckman Coulter). Cells with higher than 85% viability were seeded for the assay.
The COR-L105 and the NCI-H1650 cell line were seeded in 6-well clear TC-treated multiple well plates (Costar® cat. #3516). Cells were seeded at a density of 2,000,000 cells per well in 2.5 mL of standard growth media. Plates were incubated at 5% CO2, 37° C. overnight in a tissue culture incubator. On the day of dosing, BCL-xL degrader low molecular weight compounds and a BCL-xL inhibitor control were prepared at 6× in standard growth media. The prepared drug treatments were then added to the cells resulting in a final concentration of 100-300 nM and a final volume of 3.0 mL per well. A control well of untreated cells was also included in the study. Each drug concentration was tested in singlet. Plates were incubated at 5% CO2, 37° C. for 24 hours in a tissue culture incubator.
After 24 hours, the adherent cells were lifted off tissue culture plates using 0.25% trypsin. Standard growth media was added to quench the trypsin and centrifuged for 5 minutes at 1500 rpm. Cell pellets were washed once with cold PBS and centrifuged for 5 minutes at 1500 rpm. Cells were then washed with 1 mL cold PBS and transferred to a 1.5 mL eppendorf tube. Cells were centrifuged for 10 minutes at ≥10,000 g at 4° C. in a benchtop mini-centrifuge. The entire supernatant was discarded and cells were resuspended thoroughly in 50 μL of RIPA lysis buffer, generated by the manufacturer's protocol (ProteinSimple, Cat. #CBS401: Lysis Kit—RIPA Buffer for Charge Assays). Lysates were incubated on ice for 30 minutes. Following incubation, lysates were spun in a benchtop mini-centrifuge for 15 minutes at full speed at 4° C. Supernatant was carefully transferred to a new eppendorf tube for downstream analysis.
Protein was quantified using a Pierce™ BCA Protein Assay Kit (ThermoFisher, cat #23225) following the manufacturer's instructions. A standard curve was prepared by adding 25 μL of each concentration of reference samples from a Pierce™ Bovine Serum Albumin Standard Pre-Diluted Set (ThermoFisher, cat #23208). Each reference sample was run in duplicate. Testing samples were prepared by diluting cell lysates 1:5 in UltraPure™ DNase/RNase-Free Distilled Water and tested in duplicates of 25 μL each. The BCA working reagent was prepared by addition of 50 parts of BCA Reagent A with 1 part of BCA Reagent B. For each testing well, 200 μL of BCA working reagent was added. The plate was incubated at 37° C. for 30 minutes. A SpectraMax M Series Multi-Mode Microplate Reader was used to measure the absorbance at 562 nm. A standard curve generated by the Pierce™ Bovine Serum Albumin Standard Pre-Diluted Set was used to normalize and calculate the BCA concentration of cell lysates. Only values that fell within the range of the standard curve were accepted for quantification.
The ProteinSimple 2-40 kDa Jess Separation Module was used to detect BCL-xL degradation in treated versus untreated lysates following the manufacturer's instructions (25-Capillary Cartridge, 8 pack, 2-40 kDa, cat #SM W012). […]

NCI-H1650 = experiment: CellTiter-Glo 3D proliferation assay, NCI-H1650 spheroids; conditions: Homo sapiens, NCI-H1650, 120 h, 5 days
How it was run: as §1

T1 sequence (Q07817 whole entry): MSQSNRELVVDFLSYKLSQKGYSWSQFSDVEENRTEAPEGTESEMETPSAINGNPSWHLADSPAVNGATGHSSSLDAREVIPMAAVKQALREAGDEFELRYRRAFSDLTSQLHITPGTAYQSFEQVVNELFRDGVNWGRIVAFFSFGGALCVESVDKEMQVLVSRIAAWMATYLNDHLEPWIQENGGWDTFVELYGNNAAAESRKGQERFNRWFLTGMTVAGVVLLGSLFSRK

remaining activity at 0.3 µM (endogenous BCL-xL): 47.9% | pIC50 (NCI-H1650): 8.24
SMILES: Cc1ncsc1-c1ccc(CNC(=O)[C@@H]2C[C@@H](O)CN2C(=O)[C@@H](NC(=O)C2(F)CC2)C(C)(C)C)c(OCC(=O)N(C)CCCCCN2CCN(CC#Cc3ccc(OCCCc4sc(N5CCCc6c5nnc(Nc5nc7ccccc7s5)c6C)nc4C(=O)O)c(F)c3)CC2)c1 [Example 54, 2-(3-(benzo[d]thiazol-2-ylamino)-4-methyl-6,7-dihydropyrido [2,3-c]pyridazin-8(5H)-yl)-5-(3-(2-fluoro-4-(3-(4-(5-(2-(2-(((2S,4R)-1-((S)-2-(1-fluorocyclopropane-1-carboxamido)-3,3-dimethylbutanoyl)-4-hydroxypyrrolidine-2-carboxamido)methyl)-5-(4-methylthiazol-5-yl)phenoxy)-N-methylacetamido)pentyl)piperazin-1-yl)prop-1-yn-1-yl)phenoxy)propyl)thiazole-4-carboxylic acid]
pIC50 (COR-L105): 7.50 | Emax (COR-L105; read-out: COR-L105 Span (max)): 91.9% | Emax (NCI-H1650; read-out: NCI-H1650 Span (Amax)): 76.7%
